These results are taken from PubChem BioAssay (NCI).

Among the test systems are NCI-H460 lung; NCI-H522 lung; HCT-116 colon; U251 CNS; SK-MEL-5 melanoma; CCRF-CEM leukemia; SR leukemia; SNB-75 CNS; MDA-MB-435; SF-295 CNS; COLO 205 colon; RPMI-8226 leukemia; UO-31 renal; PC-3 prostate; A498 renal; HS 578T breast; HT29 colon; RXF 393 renal.
What all share (assay): DTP human tumour cell line panel, 48 h

The structures appear in SMILES notation.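 Tested at 5 concentrations; 48 h exposure; 96-well plates; endpoints linearly interpolated, else capped at highest concentration. Definition used: TGI = concentration required for complete inhibition of growth.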 Where only a bound is given, the exact number is not on record here.

By TGI is commonly meant the concentration giving total growth inhibition. A lower TGI goes with greater sensitivity of the cells.

With `Cc1cn(Cc2cccc(C3=NCCCN3)c2)c(=O)n(Cc2cccc(C3=NCCCN3)c2)c1=O`, the TGI in the assay on NCI-H460 lung, with NCI-H522 lung, in the assay with HCT-116 colon, in the assay on U251 CNS, in the assay with SK-MEL-5 melanoma and in the assay on CCRF-CEM leukemia was > 100 µM each time. Also, the concentration for total growth inhibition (TGI) in the assay with SR leukemia, in the assay on SNB-75 CNS, in the assay on MDA-MB-435, with SF-295 CNS, in the assay with COLO 205 colon and in the assay with RPMI-8226 leukemia was > 100 µM in each case. The TGI in the assay with UO-31 renal, with PC-3 prostate, in the assay with A498 renal and with HS 578T breast was > 100 µM in each case.
Turning to `COc1c(C(C)(C)C)cc(CC2C(=O)C=CC2=O)cc1C(C)(C)C`, the TGI with NCI-H460 lung stood at 41.2 µM; in the assay on NCI-H522 lung it was 5.03 µM; with HCT-116 colon it was 13 µM; in the assay on U251 CNS it was 35.4 µM; in the assay on HT29 colon, 36.1 µM; in the assay with SK-MEL-5 melanoma it was 33.9 µM. For the same compound, the TGI with CCRF-CEM leukemia was 14.9 µM; in the assay with SR leukemia, 19.1 µM; in the assay with RXF 393 renal, 30.4 µM; in the assay with MDA-MB-435, 37.4 µM; with SF-295 CNS, 44 µM; with COLO 205 colon, 24 µM. Further, the TGI with RPMI-8226 leukemia came to 11.6 µM; with UO-31 renal, 27.5 µM; in the assay with PC-3 prostate it was 35.8 µM; with A498 renal it was 32.9 µM; in the assay with HS 578T breast it was 70.4 µM.
Turning to `O=C(CC(C(=O)c1ccsc1)c1ccsc1)c1ccsc1` (stereo unspecified), the TGI in the assay on NCI-H460 lung, with HCT-116 colon, with U251 CNS, in the assay with HT29 colon, with SK-MEL-5 melanoma and in the assay on CCRF-CEM leukemia was > 100 µM each time. Also, the TGI in the assay with SR leukemia, in the assay on SNB-75 CNS, with MDA-MB-435, in the assay with SF-295 CNS, in the assay on COLO 205 colon and with RPMI-8226 leukemia was > 100 µM in each case. In addition, the TGI in the assay on UO-31 renal, in the assay with PC-3 prostate, with A498 renal and in the assay with HS 578T breast was > 100 µM each time.
For `O=C1c2ccccc2C(=O)c2c(NC(=O)C3CC3)ccc(NC(=O)C3CC3)c21`, the TGI in the assay on NCI-H460 lung, with NCI-H522 lung, with HCT-116 colon, in the assay with U251 CNS, in the assay with HT29 colon and in the assay on SK-MEL-5 melanoma was > 100 µM in each case. The TGI with SR leukemia, with MDA-MB-435, in the assay with SF-295 CNS, with COLO 205 colon, in the assay on RPMI-8226 leukemia and in the assay on UO-31 renal was > 100 µM throughout. Also, the TGI with PC-3 prostate, with A498 renal and with HS 578T breast was > 100 µM in each case.
In the case of `C=CCOCn1cc(F)c(=O)[nH]c1=O`, the TGI with NCI-H460 lung, with NCI-H522 lung, in the assay with HCT-116 colon, in the assay on HT29 colon, in the assay with SK-MEL-5 melanoma and in the assay on CCRF-CEM leukemia was > 100 µM each time. Moreover, the TGI in the assay on SR leukemia, in the assay on SNB-75 CNS, in the assay on MDA-MB-435, in the assay on SF-295 CNS, in the assay with COLO 205 colon and in the assay on RPMI-8226 leukemia was > 100 µM throughout. For the same compound, the TGI in the assay with UO-31 renal, in the assay with PC-3 prostate, in the assay with A498 renal and in the assay with HS 578T breast was > 100 µM in each case.
`O=C(COc1ccccc1)N(C(=O)N1CCN(c2ccccc2)CC1)S(=O)(=O)c1ccccc1`: the total growth inhibition concentration (TGI) in the assay with NCI-H460 lung, with NCI-H522 lung, with HCT-116 colon, with U251 CNS, in the assay with HT29 colon and in the assay with SK-MEL-5 melanoma was > 100 µM throughout. The TGI is 61.2 µM in the assay on CCRF-CEM leukemia; 45.4 µM with SR leukemia; 96 µM in the assay with SNB-75 CNS; > 100 µM with MDA-MB-435; > 100 µM in the assay with SF-295 CNS; > 100 µM in the assay with COLO 205 colon. In addition, the TGI in the assay on UO-31 renal, in the assay on PC-3 prostate, in the assay with A498 renal and in the assay on HS 578T breast was > 100 µM throughout.
With `CN(C)c1ccc(/C=N/c2nc3cc4sc(/N=C/c5ccc(N(C)C)cc5)nc4cc3s2)cc1`, the TGI in the assay on NCI-H460 lung, in the assay with NCI-H522 lung, in the assay with HCT-116 colon, in the assay on U251 CNS, with HT29 colon and in the assay with SK-MEL-5 melanoma was > 100 µM throughout. Moreover, the TGI with CCRF-CEM leukemia, with SR leukemia, in the assay with SNB-75 CNS, with MDA-MB-435, in the assay with SF-295 CNS and in the assay with COLO 205 colon was > 100 µM each time. Also, the TGI in the assay on RPMI-8226 leukemia was > 100 µM; in the assay with UO-31 renal, > 100 µM; in the assay on PC-3 prostate, > 100 µM; in the assay on A498 renal, > 100 µM; with HS 578T breast it was 92.4 µM.
`O=c1[nH][nH]c(=O)n1/N=C/c1ccccc1`: the TGI in the assay on NCI-H460 lung, with HCT-116 colon, in the assay on U251 CNS, in the assay on HT29 colon, with SK-MEL-5 melanoma and in the assay with CCRF-CEM leukemia was > 100 µM in each case. Moreover, the TGI in the assay with SR leukemia, with SNB-75 CNS, with MDA-MB-435, in the assay with SF-295 CNS, in the assay with COLO 205 colon and in the assay on RPMI-8226 leukemia was > 100 µM in each case. The TGI in the assay with UO-31 renal, in the assay on PC-3 prostate, in the assay with A498 renal and with HS 578T breast was > 100 µM in each case.
Consider `CCOC(=O)C1C(c2ccc(OC)cc2)c2c([nH][nH]c2=O)CC1(C)O` (stereo unspecified), for which the total growth inhibition concentration (TGI) with NCI-H460 lung, with NCI-H522 lung, in the assay on HCT-116 colon, in the assay on U251 CNS, with HT29 colon and with SK-MEL-5 melanoma was > 100 µM each time. Also, the TGI in the assay on CCRF-CEM leukemia, in the assay with SR leukemia, with SNB-75 CNS, with MDA-MB-435, in the assay with SF-295 CNS and in the assay on COLO 205 colon was > 100 µM in each case. Besides, the TGI in the assay with RPMI-8226 leukemia, in the assay on UO-31 renal, in the assay on PC-3 prostate, in the assay with A498 renal and with HS 578T breast was > 100 µM in each case.
